ChEMBL document CHEMBL4371069, “Click chemistry for improvement in selectivity of quinazoline-based kinase inhibitors for mutant epidermal growth factor receptors” (Bioorg Med Chem Lett, 2019)

How the values were obtained:
SK-BR-3 = assay: Antiproliferative activity against HER2-dependant human SKBR3 cells after 72 hrs by EZ-Cytox assay; assay type: ADME, cell-based; settings: SK-BR-3, 72 h
NCI-H1975 = assay: Antiproliferative activity against human NCI-H1975 cells harboring EGFR T790M/L858R double mutant after 72 hrs by EZ-Cytox assay; assay type: functional, cell-based; settings: NCI-H1975, 72 h
[1] = target: Epidermal growth factor receptor (Homo sapiens, UniProt P00533); assay type: ADME, cell-based, Sf21
Sequence of Epidermal growth factor receptor (Homo sapiens, UniProt P00533) (P00533 whole entry): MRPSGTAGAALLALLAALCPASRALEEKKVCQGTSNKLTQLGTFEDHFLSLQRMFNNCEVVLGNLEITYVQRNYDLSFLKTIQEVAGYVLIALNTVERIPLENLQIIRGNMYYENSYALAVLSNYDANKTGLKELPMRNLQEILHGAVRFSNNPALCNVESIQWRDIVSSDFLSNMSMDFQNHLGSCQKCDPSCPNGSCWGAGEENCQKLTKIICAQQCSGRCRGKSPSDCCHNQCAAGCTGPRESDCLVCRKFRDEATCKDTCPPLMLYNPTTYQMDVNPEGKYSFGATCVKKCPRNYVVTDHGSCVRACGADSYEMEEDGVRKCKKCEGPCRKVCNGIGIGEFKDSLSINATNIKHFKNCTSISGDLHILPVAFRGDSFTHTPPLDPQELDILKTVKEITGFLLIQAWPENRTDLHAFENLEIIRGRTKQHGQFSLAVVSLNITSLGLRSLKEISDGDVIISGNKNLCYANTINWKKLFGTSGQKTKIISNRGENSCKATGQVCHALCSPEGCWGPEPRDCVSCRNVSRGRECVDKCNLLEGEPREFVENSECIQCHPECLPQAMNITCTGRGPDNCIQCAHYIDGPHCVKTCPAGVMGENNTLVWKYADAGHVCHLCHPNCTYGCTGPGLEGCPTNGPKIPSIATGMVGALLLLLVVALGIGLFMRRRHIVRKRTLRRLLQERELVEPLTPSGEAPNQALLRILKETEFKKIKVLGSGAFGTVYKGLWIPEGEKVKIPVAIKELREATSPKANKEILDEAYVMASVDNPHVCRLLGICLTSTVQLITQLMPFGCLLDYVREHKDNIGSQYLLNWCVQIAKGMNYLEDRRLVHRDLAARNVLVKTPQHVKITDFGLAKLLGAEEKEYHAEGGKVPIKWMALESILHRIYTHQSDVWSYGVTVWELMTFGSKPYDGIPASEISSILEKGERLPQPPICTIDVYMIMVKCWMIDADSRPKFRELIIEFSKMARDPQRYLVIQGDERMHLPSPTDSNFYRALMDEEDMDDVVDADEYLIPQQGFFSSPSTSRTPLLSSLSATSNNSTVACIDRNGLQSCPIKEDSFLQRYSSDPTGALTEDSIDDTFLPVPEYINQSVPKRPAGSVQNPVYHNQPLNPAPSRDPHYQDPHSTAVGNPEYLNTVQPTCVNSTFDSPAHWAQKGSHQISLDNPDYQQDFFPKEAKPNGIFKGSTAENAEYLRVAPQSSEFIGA
Description: Inhibition of human N-terminal GST-tagged EGFR kinase domain (696 to end residues) expressed in baculovirus infected sf21 cells using poly(Glu, Tyr) 4:1 as substrate

[2] = target: Receptor tyrosine-protein kinase erbB-2 (Homo sapiens, UniProt P04626); assay: Inhibition of human C-terminal His6-tagged ERBB2 (676 to end residues) expressed in baculovirus infected sf21 cells using poly(Glu, Tyr) 4:1 as substrate
Sequence of Receptor tyrosine-protein kinase erbB-2 (P04626 whole entry): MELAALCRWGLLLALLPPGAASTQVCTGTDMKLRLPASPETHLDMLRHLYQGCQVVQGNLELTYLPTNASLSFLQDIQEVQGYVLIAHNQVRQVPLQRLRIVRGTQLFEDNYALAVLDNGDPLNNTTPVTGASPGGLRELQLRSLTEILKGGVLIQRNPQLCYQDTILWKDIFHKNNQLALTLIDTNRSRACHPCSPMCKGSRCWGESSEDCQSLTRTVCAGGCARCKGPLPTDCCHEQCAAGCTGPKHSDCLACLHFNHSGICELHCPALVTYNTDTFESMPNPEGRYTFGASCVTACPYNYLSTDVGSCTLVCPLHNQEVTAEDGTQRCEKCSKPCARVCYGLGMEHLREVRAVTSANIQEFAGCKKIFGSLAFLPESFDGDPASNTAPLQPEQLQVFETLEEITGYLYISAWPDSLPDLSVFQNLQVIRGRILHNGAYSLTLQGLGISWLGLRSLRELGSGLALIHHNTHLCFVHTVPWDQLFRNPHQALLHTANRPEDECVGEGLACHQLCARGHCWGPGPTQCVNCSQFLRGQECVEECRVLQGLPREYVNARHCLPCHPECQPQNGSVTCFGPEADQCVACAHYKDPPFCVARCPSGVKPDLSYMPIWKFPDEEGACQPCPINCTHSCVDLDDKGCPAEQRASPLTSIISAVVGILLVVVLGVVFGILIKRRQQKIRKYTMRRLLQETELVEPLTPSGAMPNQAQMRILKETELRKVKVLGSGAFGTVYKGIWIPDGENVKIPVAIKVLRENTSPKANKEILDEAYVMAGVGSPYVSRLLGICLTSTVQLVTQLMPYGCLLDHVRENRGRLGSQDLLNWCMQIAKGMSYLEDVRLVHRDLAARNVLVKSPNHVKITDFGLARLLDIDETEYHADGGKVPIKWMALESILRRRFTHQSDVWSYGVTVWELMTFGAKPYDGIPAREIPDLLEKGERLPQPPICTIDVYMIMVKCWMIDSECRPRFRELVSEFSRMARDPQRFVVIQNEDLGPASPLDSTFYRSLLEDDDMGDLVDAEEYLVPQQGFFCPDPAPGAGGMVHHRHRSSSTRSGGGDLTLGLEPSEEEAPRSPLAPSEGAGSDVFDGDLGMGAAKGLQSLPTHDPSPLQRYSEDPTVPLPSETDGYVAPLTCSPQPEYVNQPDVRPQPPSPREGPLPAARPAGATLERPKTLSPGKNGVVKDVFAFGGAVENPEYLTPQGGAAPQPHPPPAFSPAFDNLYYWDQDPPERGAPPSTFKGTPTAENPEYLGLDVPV

PC-9 = assay: Antiproliferative activity against human PC9 cells harboring EGFR exon-19 del mutant after 72 hrs by EZ-Cytox assay; assay type: functional, cell-based; settings: PC-9, 72 h
[3] = target: Epidermal growth factor receptor (Homo sapiens, UniProt P00533, L858R/T790M); assay: biochemical; assay type: cell-based, Sf21
Sequence of Epidermal growth factor receptor (Homo sapiens, UniProt P00533, L858R/T790M) (P00533 25-1210 T790M/L858R limits assumed): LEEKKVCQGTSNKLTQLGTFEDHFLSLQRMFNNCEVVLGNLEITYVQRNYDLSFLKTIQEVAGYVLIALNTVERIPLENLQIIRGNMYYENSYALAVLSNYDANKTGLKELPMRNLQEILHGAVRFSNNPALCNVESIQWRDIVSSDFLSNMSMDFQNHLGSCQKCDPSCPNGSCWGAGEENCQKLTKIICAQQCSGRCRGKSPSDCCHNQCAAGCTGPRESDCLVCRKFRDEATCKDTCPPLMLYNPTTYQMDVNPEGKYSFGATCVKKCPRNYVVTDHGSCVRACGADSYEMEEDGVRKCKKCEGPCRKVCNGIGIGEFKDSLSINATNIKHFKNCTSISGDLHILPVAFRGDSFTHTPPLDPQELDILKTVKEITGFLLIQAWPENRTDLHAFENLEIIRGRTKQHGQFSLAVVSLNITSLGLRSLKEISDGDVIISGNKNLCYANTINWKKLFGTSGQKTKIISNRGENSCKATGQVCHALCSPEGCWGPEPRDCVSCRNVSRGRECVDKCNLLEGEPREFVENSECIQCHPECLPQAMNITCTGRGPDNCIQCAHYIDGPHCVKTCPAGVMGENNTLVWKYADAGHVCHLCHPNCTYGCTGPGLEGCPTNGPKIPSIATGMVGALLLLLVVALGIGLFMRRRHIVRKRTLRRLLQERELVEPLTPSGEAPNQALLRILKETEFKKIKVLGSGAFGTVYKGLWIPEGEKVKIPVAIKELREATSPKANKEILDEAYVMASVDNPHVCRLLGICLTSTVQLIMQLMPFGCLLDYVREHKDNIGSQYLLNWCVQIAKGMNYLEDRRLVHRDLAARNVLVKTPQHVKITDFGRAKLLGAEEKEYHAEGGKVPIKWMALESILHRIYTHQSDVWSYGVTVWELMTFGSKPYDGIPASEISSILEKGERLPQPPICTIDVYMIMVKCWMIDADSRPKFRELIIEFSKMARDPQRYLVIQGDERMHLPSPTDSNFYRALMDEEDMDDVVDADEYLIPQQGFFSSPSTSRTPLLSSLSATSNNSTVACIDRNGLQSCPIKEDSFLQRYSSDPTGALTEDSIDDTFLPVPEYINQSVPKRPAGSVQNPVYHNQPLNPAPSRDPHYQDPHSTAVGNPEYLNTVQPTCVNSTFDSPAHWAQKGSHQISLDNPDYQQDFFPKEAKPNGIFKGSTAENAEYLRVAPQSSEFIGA

A549 = assay: Antiproliferative activity against human A549 cells harboring wild-type EGFR after 72 hrs by EZ-Cytox assay; assay type: ADME, cell-based; settings: A549, 72 h
[4] = Safety index, ratio of compound IC50 to afatinib IC50 for antiproliferative activity against HER2-dependant human SKBR3 cells; assay type: cell-based; settings: SK-BR-3 cells (HER2-dependent), read-out: Ratio IC50
HepG2 = assay: Cytotoxicity against human HepG2 cells after 24 hrs by LDH release assay; assay type: cell-based; settings: HepG2, 24 h
CYP3A4 = CYP3A4 (Homo sapiens, UniProt P08684); assay: Inhibition of CYP3A4 in human liver microsomes assessed as residual activity at 10 uM using midazolam as substrate preincubated for 5 mins followed by NADPH addition and measured after 15 mins by LC-MS/MS analysis relative to control; assay type: ADME; settings: probe midazolam, read-out: Activity
CYP2C8 = target: T1, CYP2C8 (Homo sapiens, UniProt P10632); assay: Inhibition of CYP2C8 in human liver microsomes assessed as residual activity at 10 uM using amiodiaquine as substrate preincubated for 5 mins followed by NADPH addition and measured after 15 mins by LC-MS/MS analysis relative to control; assay type: ADME; settings: probe amiodiaquine, read-out: Activity
T1 sequence (P10632 whole entry): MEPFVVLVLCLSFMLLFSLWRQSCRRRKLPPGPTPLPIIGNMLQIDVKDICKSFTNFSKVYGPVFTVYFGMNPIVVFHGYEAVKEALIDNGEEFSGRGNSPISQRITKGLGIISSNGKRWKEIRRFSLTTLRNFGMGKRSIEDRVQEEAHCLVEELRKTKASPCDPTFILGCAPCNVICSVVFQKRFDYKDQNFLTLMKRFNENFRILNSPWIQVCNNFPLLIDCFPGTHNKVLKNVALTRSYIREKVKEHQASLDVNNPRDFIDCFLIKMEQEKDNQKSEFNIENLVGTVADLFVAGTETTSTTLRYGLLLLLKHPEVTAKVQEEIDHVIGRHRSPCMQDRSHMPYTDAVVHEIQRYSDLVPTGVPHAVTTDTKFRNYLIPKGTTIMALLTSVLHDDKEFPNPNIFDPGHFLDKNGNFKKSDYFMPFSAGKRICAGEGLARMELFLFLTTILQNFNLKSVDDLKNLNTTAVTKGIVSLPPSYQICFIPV

CYP1A2 = target: T2, CYP1A2 (Homo sapiens, UniProt P05177); assay: Inhibition of CYP1A2 in human liver microsomes assessed as residual activity at 10 uM using phenacetin as substrate preincubated for 5 mins followed by NADPH addition and measured after 15 mins by LC-MS/MS analysis relative to control; assay type: ADME; settings: probe phenacetin, read-out: Activity
T2 sequence (P05177 whole entry): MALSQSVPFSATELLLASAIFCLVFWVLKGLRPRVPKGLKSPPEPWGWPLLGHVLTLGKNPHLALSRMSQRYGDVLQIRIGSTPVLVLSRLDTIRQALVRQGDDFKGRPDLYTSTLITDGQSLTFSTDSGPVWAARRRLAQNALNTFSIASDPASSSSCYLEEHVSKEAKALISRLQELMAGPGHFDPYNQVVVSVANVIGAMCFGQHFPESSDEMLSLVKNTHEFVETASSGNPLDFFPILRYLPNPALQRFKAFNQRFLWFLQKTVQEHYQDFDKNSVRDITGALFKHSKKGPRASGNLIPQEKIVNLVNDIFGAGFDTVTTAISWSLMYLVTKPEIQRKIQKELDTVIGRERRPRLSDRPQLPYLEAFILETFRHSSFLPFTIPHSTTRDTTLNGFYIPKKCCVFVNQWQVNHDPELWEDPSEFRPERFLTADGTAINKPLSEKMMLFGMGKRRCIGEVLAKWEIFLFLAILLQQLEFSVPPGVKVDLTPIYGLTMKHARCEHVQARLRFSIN

CYP2B6 = target: T3, CYP2B6 (Homo sapiens, UniProt P20813); assay: Inhibition of CYP2B6 in human liver microsomes assessed as residual activity at 10 uM using bupropion as substrate preincubated for 5 mins followed by NADPH addition and measured after 15 mins by LC-MS/MS analysis relative to control; assay type: ADME; settings: probe bupropion, read-out: Activity
T3 sequence (P20813 whole entry): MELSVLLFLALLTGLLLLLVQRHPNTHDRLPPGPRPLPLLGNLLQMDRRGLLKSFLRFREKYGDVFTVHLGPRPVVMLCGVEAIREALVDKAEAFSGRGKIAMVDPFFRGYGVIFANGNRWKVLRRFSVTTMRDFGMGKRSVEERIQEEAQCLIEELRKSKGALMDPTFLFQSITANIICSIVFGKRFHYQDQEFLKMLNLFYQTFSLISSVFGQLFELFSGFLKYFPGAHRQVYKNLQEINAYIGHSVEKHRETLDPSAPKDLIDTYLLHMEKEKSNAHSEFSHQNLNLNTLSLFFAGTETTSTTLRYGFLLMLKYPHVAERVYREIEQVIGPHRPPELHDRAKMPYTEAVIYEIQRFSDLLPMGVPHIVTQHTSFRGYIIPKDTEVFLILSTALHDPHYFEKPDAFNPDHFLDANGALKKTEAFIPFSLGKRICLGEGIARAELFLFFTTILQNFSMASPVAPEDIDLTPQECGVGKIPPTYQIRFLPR

CYP2E1 = CYP2E1 (Homo sapiens, UniProt P05181); assay: Inhibition of CYP2E1 in human liver microsomes assessed as residual activity at 10 uM using chlorzoxazone as substrate preincubated for 5 mins followed by NADPH addition and measured after 15 mins by LC-MS/MS analysis relative to control; assay type: ADME; settings: probe chlorzoxazone, read-out: Activity
Sequence of CYP2E1 (P05181 whole entry): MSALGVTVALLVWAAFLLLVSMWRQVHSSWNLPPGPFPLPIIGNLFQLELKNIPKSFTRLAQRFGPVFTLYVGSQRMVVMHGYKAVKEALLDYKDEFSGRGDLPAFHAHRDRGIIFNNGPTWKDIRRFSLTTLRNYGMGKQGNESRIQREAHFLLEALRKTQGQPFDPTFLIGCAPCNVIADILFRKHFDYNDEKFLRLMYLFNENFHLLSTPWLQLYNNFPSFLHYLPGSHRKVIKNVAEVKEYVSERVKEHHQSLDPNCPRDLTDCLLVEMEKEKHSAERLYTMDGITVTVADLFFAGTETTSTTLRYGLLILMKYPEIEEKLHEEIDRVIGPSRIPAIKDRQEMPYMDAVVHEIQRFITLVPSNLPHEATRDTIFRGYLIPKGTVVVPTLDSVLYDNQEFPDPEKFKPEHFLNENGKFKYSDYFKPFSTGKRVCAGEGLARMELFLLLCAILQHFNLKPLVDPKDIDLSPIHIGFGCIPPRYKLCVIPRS

CYP2A6 = target: T4, CYP2A6 (Homo sapiens, UniProt P11509); assay: Inhibition of CYP2A6 in human liver microsomes assessed as residual activity at 10 uM using coumarin as substrate preincubated for 5 mins followed by NADPH addition and measured after 15 mins by LC-MS/MS analysis relative to control; assay type: ADME; settings: probe coumarin, read-out: Activity
T4 sequence (P11509 whole entry): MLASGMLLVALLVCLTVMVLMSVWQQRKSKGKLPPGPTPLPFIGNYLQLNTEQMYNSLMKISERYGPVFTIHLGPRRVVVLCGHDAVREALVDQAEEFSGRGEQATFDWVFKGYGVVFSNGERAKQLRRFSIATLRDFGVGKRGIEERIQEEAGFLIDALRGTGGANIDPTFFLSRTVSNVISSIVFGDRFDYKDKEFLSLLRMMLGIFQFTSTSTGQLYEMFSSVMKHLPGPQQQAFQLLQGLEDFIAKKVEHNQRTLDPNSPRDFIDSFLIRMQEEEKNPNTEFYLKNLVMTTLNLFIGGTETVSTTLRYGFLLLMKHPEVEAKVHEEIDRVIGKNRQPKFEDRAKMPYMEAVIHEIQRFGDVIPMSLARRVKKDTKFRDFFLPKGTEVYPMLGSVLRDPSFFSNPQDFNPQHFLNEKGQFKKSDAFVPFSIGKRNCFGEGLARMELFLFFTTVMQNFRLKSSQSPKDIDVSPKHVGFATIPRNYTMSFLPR

CYP2C9 = CYP2C9 (Homo sapiens, UniProt P11712); assay: Inhibition of CYP2C9 in human liver microsomes assessed as residual activity at 10 uM using tolbutamide as substrate preincubated for 5 mins followed by NADPH addition and measured after 15 mins by LC-MS/MS analysis relative to control; assay type: ADME; settings: probe tolbutamide, read-out: Activity
Sequence of CYP2C9 (P11712 whole entry): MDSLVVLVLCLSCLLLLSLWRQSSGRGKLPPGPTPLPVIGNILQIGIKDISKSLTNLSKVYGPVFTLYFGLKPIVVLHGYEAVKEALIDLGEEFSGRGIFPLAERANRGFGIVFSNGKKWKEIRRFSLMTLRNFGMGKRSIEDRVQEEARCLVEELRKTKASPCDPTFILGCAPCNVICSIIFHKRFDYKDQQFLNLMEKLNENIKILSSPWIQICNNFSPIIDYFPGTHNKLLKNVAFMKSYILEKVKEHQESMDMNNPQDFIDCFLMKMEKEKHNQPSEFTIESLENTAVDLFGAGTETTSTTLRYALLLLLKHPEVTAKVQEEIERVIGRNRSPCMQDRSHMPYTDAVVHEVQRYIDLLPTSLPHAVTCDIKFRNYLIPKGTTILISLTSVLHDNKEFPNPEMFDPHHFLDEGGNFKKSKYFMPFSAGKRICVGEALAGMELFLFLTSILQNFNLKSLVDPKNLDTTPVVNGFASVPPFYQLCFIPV

CYP2C19 = CYP2C19 (Homo sapiens, UniProt P33261); assay: Inhibition of CYP2C19 in human liver microsomes assessed as residual activity at 10 uM using S-mephenytoin as substrate preincubated for 5 mins followed by NADPH addition and measured after 15 mins by LC-MS/MS analysis relative to control; assay type: ADME; settings: probe S-mephenytoin, read-out: Activity

Row | Structure (SMILES) | IC50 (SK-BR-3) [nM] | IC50 (NCI-H1975) [nM] | IC50 [1] [nM] | IC50 [2] [nM] | IC50 (PC-9) [nM] | IC50 [3] [nM] | IC50 (A549) [nM] | further results
1 | C=CC(=O)Nc1cc2c(Nc3ccc(F)c(Cl)c3)ncnc2cc1OCc1cn(CCCN2CCOCC2)nn1 | 19 | 341 | 12 | 54 | 0.6 | 4 | 8160 | –
2 | C=CC(=O)Nc1cc2c(Nc3ccc(F)c(Cl)c3)ncnc2cc1OCc1cn(CCCO)nn1 | – | 1370 | 12 | 67 | 1.5 | 4 | – | –
3 | C=CC(=O)Nc1cc2c(Nc3ccc(F)c(Cl)c3)ncnc2cc1OCc1cn(Cc2ccccc2F)nn1 | – | 619 | 65 | 78 | 1.2 | 12 | – | –
4 | C=CC(=O)Nc1cc2c(Nc3ccc(F)c(Cl)c3)ncnc2cc1OCc1cn(Cc2ccccc2)nn1 | – | 808 | 39 | 90 | 1.2 | 8 | – | –
5 | CN(C)C/C=C/C(=O)Nc1cc2c(Nc3ccc(F)c(Cl)c3)ncnc2cc1O[C@H]1CCOC1 [AFATINIB] | 1.2 | 131 | – | – | 0.1 | – | 3770 | –
6 | C=CC(=O)Nc1cc2c(Nc3ccc(F)c(Cl)c3)ncnc2cc1OCc1cn(Cc2ccc(OC)cc2)nn1 | – | 701 | 41 | 212 | 1.1 | 5 | – | –
7 | C=CC(=O)Nc1cc2c(Nc3ccc(F)c(Cl)c3)ncnc2cc1OCc1cn(-c2ccccc2)nn1 | – | 4780 | 74 | 471 | 32 | 26 | – | –
8 | C=CC(=O)Nc1cc2c(Nc3ccc(F)c(Cl)c3)ncnc2cc1OCc1cn(CCc2ccccc2)nn1 | – | 2090 | 41 | 448 | 3.6 | 12 | – | –
9 | C#CCOc1cc2ncnc(Nc3ccc(F)c(Cl)c3)c2cc1NC(=O)C=C | 106 | 1590 | – | – | 2.9 | – | > 10000 | –
10 | C=CC(=O)Nc1cc2c(Nc3ccc(F)c(Cl)c3)ncnc2cc1OCc1cn(Cc2ccc(C)cc2)nn1 | 216 | 417 | 105 | 158 | 1.3 | 15 | 737 | selectivity ratio [4]: > 95
11 | COC(=O)C1=C(C)NC(C)=C(C(=O)OC)C1c1ccccc1[N+](=O)[O-] [NIFEDIPINE] | – | – | – | – | – | – | – | IC50 (HepG2): 9400 nM
12 | CC(=O)N1CCN(c2ccc(OCC3COC(Cn4ccnc4)(c4ccc(Cl)cc4Cl)O3)cc2)CC1 (configuration not stated) [KETOCONAZOLE] | – | – | – | – | – | – | – | activity at 0.25 h, 10 µM (CYP3A4): 35.7%; activity at 0.25 h, 10 µM (CYP2C8): 95.6%; activity at 0.25 h, 10 µM (CYP1A2): 92.5%; activity at 0.25 h, 10 µM (CYP2B6): 84.1%; activity at 0.25 h, 10 µM (CYP2E1): 98.1%; activity at 0.25 h, 10 µM (CYP2A6): 91.8%; activity at 0.25 h, 10 µM (CYP2C9): 85%; activity at 0.25 h, 10 µM (CYP2C19): 85.8%
